Assay results reported in patent US9334300B2, “Vitamin B6 derivatives of nucleotides, acyclonucleotides and acyclonucleoside phosphonates” (MBC PHARMA, INC., priority 2011, dated 2016).
pIC50: −log10 of the molar value. Each block holds one molecule with its values, some of them ahead of it.

How the values were obtained:
[1] = test system: 5TGM1 cells; test: MTS proliferation assay, multiple myeloma cell line; type: cell-based, rodent; conditions: 72 hours, FIG. 3
Description: In a 96-well plate, each well was prepared to contain 50 uL of 50,000 5TGM1 cells in media (HyClone IMDM Modified+4 mM L-Glu, HEPES with 10% Fetal Bovine Serum) to which was added 50 uL media containing cytarabine or compound 3 (MU004-26) that achieved the following final concentrations: 0, 0.1, 0.2, 0.5, 1, 3, 10, or 100 uM. The cells were incubated at 37° C. with 5% CO2 for 24, 48 or 72 hours (data trends similarly for all incubation periods while the 72 hour data is shown). The Promega […] based proliferation assay kit was used as per manufacturer's instructions. In short, to each well 100 uL of MTS/PMS reagent was added and allowed to incubate for approximately 2 hours at 37° C. to achieve a colorimetric indication of active cell metabolism. This was quantitated by reading the visible absorption at 415 nm. The data (FIG. 3) was normalized to the absorption range defined from minimal absorbance—media absent cells and drug present, to maximum absorbance—media with cells in the absence of drug. All points were measured in triplicate and averaged before normalization to a 0-100% range. Data was plotted (FIG. 3) as percent inhibition versus log of the compound concentration. As the FIG. 3 illustrates the Cytarabine IC50=0.5 uM while the Conjugate IC50=1 uM.

[2] = test system: 22Rv1 cells; test: MTS proliferation assay, 22Rv1 prostate cancer cells; type: cell-based
Description: (§1) In a 96-well plate, each well was prepared to contain 50 uL of 50,000 cells in media (HyClone IMDM Modified+4 mM L-Glu, HEPES with 10% Fetal Bovine Serum) to which was added 50 uL media containing either the free nucleoside (cytarabine or gemcitabine) or the conjugate (compound 3 or 16) that achieved the following final concentrations: 0, 0.1, 0.2, 0.5, 1, 3, 10, or 100 uM. The cells were incubated at 37° C. with 5% CO2 for 24, 48 or 72 hours (data trends similarly for all incubation periods while the 48 hour data is shown). The Promega MTS based proliferation assay kit (Promega; CellTiter 96® AQueous Non-Radioactive Cell Proliferation Assay (MTS)) was used as per manufacturer's instructions. In short, to each well 100 uL of MTS/PMS reagent was added and allowed to incubate for approximately 2 hours at 37° C. to achieve a colorimetric indication of active cell metabolism. This was quantitated by reading the visible absorption at 415 nm. The data (FIG. 1) was normalized to the absorption range defined from minimal absorbance (media absent cells and drug present), to maximum absorbance (media with cells in the absence of drug). All points were measured in triplicate and averaged before normalization to a 0-100% range. Data was plotted (FIG. 1) as percent inhibition versus log of the compound concentration. Where sigmodial curve fitting was possible, a four-parameter logistic non-linear regression model equation was used to generate the curves and IC50 values. […] The pulse chase experiments shown in FIG. 2 were done as described above with the one alteration that at either the 10 or 60 time point after addition of drug the media was replaced with drug-free media and the cells were allowed to continue incubation for a total of 48 hours. […] Data points were collected in quintuplicate; error bars show standard deviations. […] Sigmodial curve fitting employed a four-parameter logistic non-linear regression model equation.

[3] = test system: 22Rv1 cells; test: Pulse chase (10 or 60 minute exposure) MTS proliferation assay, 22Rv1; type: cell-based; conditions: 48 hours in fresh media
Description: as §1
This was tested for with a 10 or 60 minute pulsed exposure of 22Rv1 cells to compounds, followed by 48 hours of incubation in fresh media. […]

[4] = Conjugate stability in saline and growth media (HPLC); type: physicochemical; conditions: for stability in buffers and media: over the time course of experiments
Description: The rapid release of nucleoside or nucleotide from the conjugate into the growth media appeared to be ruled out. To test for this event conjugate 3 was incubated in isotonic saline, sterile media or media that was conditioned by 3 days of cell growth. In conditioned media the cells were removed from the media by centrifugation and conjugate was added to the media and incubated at 37° C. for 0.25, 24 and 72 hours. Proteins and large molecules were removed via precipitation with a 5:4:1 v:v:v mixture of Acetonitrile:methanol:1% Formic acid and subsequent centrifugation. The supernatant (100 uL injection volume) was subjected to HPLC analysis on DNA Pac PA 200 (Dionex, USA) column in a gradient of 400 mM ammonium acetate in 20% acetonitrile (3-40% over 10 minutes).

[5] = test system: Capan2 cells; test: Pulse chase (60 minute exposure) MTS proliferation assay, Capan2; type: cell-based, human; conditions: 60 minute pulse, all concentrations tested
[6] = test system: subcutaneous Capan-2 tumors; test: Mouse xenograft model of pancreatic cancer; type: in vivo; conditions: nude mice, Capan-2 subcutaneous, 20 mg/kg 3-times per week
Description: FIG. 4 illustrates the conjugate of vitamin B6 and gemcitabine is efficacious in a mouse model of human pancreatic cancer. In this model, immune compromised nude mice were injected subcutaneously with the human pancreatic cell line Capan-2 (˜10^6 cells/100 ul). After tumor growth was detected the animals were randomized and either administered the isotonic saline vehicle control alone or with the gemcitabine conjugate (20 mg/kg; 3-times per week).

[7] = test system: pancreatic cell lines (Capan2, Panc1 and MiaPaca); test: MTS proliferation assay, pancreatic cancer cell lines; type: cell-based; conditions: 48 hours, FIG. 1
Description: (§2) In a 96-well plate, each well was prepared to contain 50 uL of 50,000 cells in media (HyClone IMDM Modified+4 mM L-Glu, HEPES with 10% Fetal Bovine Serum) to which was added 50 uL media containing either the free nucleoside (cytarabine or gemcitabine) or the conjugate (compound 3 or 16) that achieved the following final concentrations: 0, 0.1, 0.2, 0.5, 1, 3, 10, or 100 uM. The cells were incubated at 37° C. with 5% CO2 for 24, 48 or 72 hours (data trends similarly for all incubation periods while the 48 hour data is shown). The Promega MTS based proliferation assay kit (Promega; CellTiter 96® AQueous Non-Radioactive Cell Proliferation Assay (MTS)) was used as per manufacturer's instructions. In short, to each well 100 uL of MTS/PMS reagent was added and allowed to incubate for approximately 2 hours at 37° C. to achieve a colorimetric indication of active cell metabolism. This was quantitated by reading the visible absorption at 415 nm. The data (FIG. 1) was normalized to the absorption range defined from minimal absorbance (media absent cells and drug present), to maximum absorbance (media with cells in the absence of drug). All points were measured in triplicate and averaged before normalization to a 0-100% range. Data was plotted (FIG. 1) as percent inhibition versus log of the compound concentration. […]

[8] = test system: PC3 prostate cancer line; test: MTS proliferation assay, PC3 prostate cancer cells; type: cell-based; conditions: 48 hours, FIG. 1
Description: as §2

pIC50 [1]: 6.30
Compound: Nc1ccn([C@@H]2O[C@H](CO)[C@@H](O)[C@@H]2O)c(=O)n1 [Cytarabine, reference compound]

stability in buffers and media [4]: stable
Compound: Cc1ncc(CO)c(CNP(=O)(O)OC[C@H]2O[C@@H](n3ccc(N)nc3=O)C(F)(F)C2O)c1O (stereo partly drawn) [Compound 16, N-pyridoxylamide of 2′-Deoxy-2′,2′-difluoro-5′-cytidylic acid]
fold more potent than Gem ([2]; 48 hours, FIG. 1): up to 7 fold
decrease of proliferation beyond that of free gemcitabine ([3]; 100 uM pulse for 60 minutes): 40%
anti-proliferation after pulse ([3]; 10 minute pulse): measurable anti-proliferation
effect of pulse compared to free Gem [5]: more rapid effect
tumor growth relative to untreated growth [6]: stabilized tumor growth
fold more potent than Gem alone [7]: 2-100 fold

pIC50 [1]: 6.00
stability in buffers and media [4]: stable
Compound: Cc1ncc(CO)c(CN[P@SP3](=O)(O)OC[C@H]2O[C@@H](n3ccc(N)nc3=O)C(O)C2O)c1O (stereo partly drawn) [Compound 3, 5′-aracytidilic acid N-pyridoxylamide]
fold more potent than araC ([2]; 48 hours, FIG. 1): > 10 fold
release of free cytarabine or pyridoxamine (HPLC) ([4]; isotonic saline, sterile media or conditioned media, 37° C., 0.25, 24 and 72 hours): neither free cytarabine nor free pyridoxamine (or any other pyridoxyl based compound) was detected

Compound: Nc1ccn([C@@H]2O[C@H](CO)[C@@H](O)C2(F)F)c(=O)n1 [Gemcitabine, 2′-Deoxy-2′,2′-difluorocytidine, reference compound]
effect on proliferation ([2]; 48 hour exposure, 0.1-10 uM): stimulated proliferation
stimulation of proliferation ([3]; 100 uM pulse): 10%
sensitivity to parent drug relative to conjugate [8]: 3 fold
